Results taken from patent publication US8318697B2, “Prophylactic and therapeutic treatment of infectious and other diseases with mono- and disaccharide-based compounds” (Corixa Corporation, priority 2000, dated 2012).
Where “and” joins values, the source holds several entries; their conditions need not be identical. Equal entries are not always repeated. Where two headings read alike, the source gives them in different places.

Assays:
[1] = test system: Ogawa P. gingivalis LPS stimulated whole blood cells; assay: Inhibition of LPS-induced cytokines in whole blood; assay type: cell-based, human; conditions: 10, 5, 2.5 ug/mL
Source text: Table 4 provides the maximum levels of IL-4, IL-2 and IL-5 obtained, as well as ratios of TNF to IL-10, and ratios of IL-10 to TNF. Inhibition data for IL-8, reported as a percentage, are also provided on the right hand side of Table 4. For example, 90% inhibition would calculate to a 90% reduction of cytokine levels. MIP-1β results were similar. […]

[2] = test system: human whole blood; assay type: cell-based; conditions: for cytokine stimulation in human whole blood cultures: overnight culture
[3] = test system: L. monocytogenes 10403 serotype; assay: Murine Listeria monocytogenes challenge model; assay type: in vivo, Mice; conditions: 1 μg intravenously in 0.2% TEOA, challenge two days later; FIGS. 14-17
Experimental: This example provides experiments evaluating the induction of non-specific resistance in the murine Listeria monocytogenes challenge model performed using various AGPs and MPL. Mice (5 per group) were treated intravenously with the 1 μg of an AGP or MPL solubilized in 0.2% TEOA. Two days later the mice were challenged intravenously with a ˜10^5 L. monocytogenes 10403 serotype (provided by M. L. Gray, Montana State University, Bozeman, Mont.). Two days after the challenge, the mice were sacrificed and the number of colony forming units (CFUs) in the spleens of individual mice were determined by plating 10-fold serial dilutions of splenic homogenates on tryptic soy agar plates. The degree of protection afforded by a given AGP or MPL was calculated by subtracting the average number of bacteria per spleen (log 10 value) in the group of mice treated with a given compound, from the average number of bacteria per spleen (log 10 value) in a control group that was “sham” treated with vehicle (0.2% TEOA) prior to challenge with L. monocytogenes.

Compound: CCCCCCCCCCC[C@H](CC(=O)N[C@H]1[C@H](OC[C@H](NC(=O)C[C@@H](CCCCCCCCCCC)OC(=O)CCCCCCCCCC)C(=O)O)O[C@H](CO)[C@@H](OP(=O)(O)O)[C@@H]1OC(=O)C[C@@H](CCCCCCCCCCC)OC(=O)CCCCCCCCCC)OC(=O)CCCCCCCCCC.CCN(CC)CC [RC-538]
- % inhib. LPS IL-8 [1]: −3%
- IL10/TNFα cba [2]: 0.5 and 0.3
- IL-1β cba2 [2]: 7767
- TNFα/IL10 cba [2]: 2.3 and 4

Compound: CCCCCCCCCCCCCC(=O)O[C@H](CCCCCCCCCCC)CC(=O)NCCCCO[C@@H]1O[C@H](CO)[C@@H](OP(=O)(O)O)[C@H](OC(=O)C[C@@H](CCCCCCCCCCC)OC(=O)CCCCCCCCCCCCC)[C@H]1NC(=O)C[C@@H](CCCCCCCCCCC)OC(=O)CCCCCCCCCCCCC.CCN(CC)CC [RC-557]
- IL10/TNFα cba ([2]; donor 1, ratio of IL-10 to TNF): 0.6
- TNFα/IL10 cba ([2]; donor 1, ratio of TNF to IL-10): 0.6
- TNFα/IL10 cba ([2]; donor 2, ratio of TNF to IL-10): 0.5

Compound: CCCCCCCCCCC[C@H](CC(=O)N[C@H]1[C@H](OC[C@H](NC(=O)C[C@@H](CCCCCCCCCCC)OC(=O)CCCCCCCCC)C(=O)O)O[C@H](CO)[C@@H](OP(=O)(O)O)[C@@H]1OC(=O)C[C@@H](CCCCCCCCCCC)OC(=O)CCCCC)OC(=O)CCCCC.CCN(CC)CC [RC-567]
- % inhib. LPS IL-8 [1]: 100%
- cytokine stimulation in human whole blood cultures [2]: little if any cytokine stimulation

Compound: CCCCCCCCCCC[C@H](CC(=O)N[C@@H](CO)CO[C@@H]1O[C@H](CO)[C@@H](OP(=O)(O)O)[C@H](OC(=O)C[C@@H](CCCCCCCCCCC)OC(=O)CCCCCCCCC)[C@H]1NC(=O)C[C@@H](CCCCCCCCCCC)OC(=O)CCCCCCCCC)OC(=O)CCCCCCCCC.CCN(CC)CC [RC-545]
- protection against L. monocytogenes challenge (reduction of log 10 bacteria per spleen vs vehicle) [3]: protection that was equal to or greater than that provided by MPL

Compound: CCCCCCCCCCC[C@H](CC(=O)N[C@H]1[C@H](OC[C@H](NC(=O)C[C@@H](CCCCCCCCCCC)OC(=O)CCCCC)C(=O)O)O[C@H](CO)[C@@H](OP(=O)(O)O)[C@@H]1OC(=O)C[C@@H](CCCCCCCCCCC)OC(=O)CCCCCCCCC)OC(=O)CCCCC.CCN(CC)CC [RC-570]
- % inhib. LPS IL-8 [1]: 100%
- cytokine stimulation in human whole blood cultures [2]: little if any cytokine stimulation

Compound: CCCCCCCCCCC[C@H](CC(=O)N[C@@H](CCC(=O)O)CO[C@@H]1O[C@H](CO)[C@@H](OP(=O)(O)O)[C@H](OC(=O)C[C@@H](CCCCCCCCCCC)OC(=O)CCCCCCCCC)[C@H]1NC(=O)C[C@@H](CCCCCCCCCCC)OC(=O)CCCCCCCCC)OC(=O)CCCCCCCCC.CCN(CC)CC [RC-573]
- protection against L. monocytogenes challenge (reduction of log 10 bacteria per spleen vs vehicle) [3]: protection that was equal to or greater than that provided by MPL

Compound: CCCCCCCCCCC[C@H](CC(=O)N[C@H]1[C@H](OC[C@H](NC(=O)C[C@@H](CCCCCCCCCCC)OC(=O)CCCCCCCC)C(=O)O)O[C@H](CO)[C@@H](OP(=O)(O)O)[C@@H]1OC(=O)C[C@@H](CCCCCCCCCCC)OC(=O)CCCCCCCC)OC(=O)CCCCCCCC.CCN(CC)CC [RC-537]
- % inhib. LPS IL-8 [1]: 33%
- IL-1β cba2 [2]: 8353

Compound: CCCCCCCCCCC[C@H](CC(=O)N[C@@H](CCO)CO[C@@H]1O[C@H](CO)[C@@H](OP(=O)(O)O)[C@H](OC(=O)C[C@@H](CCCCCCCCCCC)OC(=O)CCCCCCCCC)[C@H]1NC(=O)C[C@@H](CCCCCCCCCCC)OC(=O)CCCCCCCCC)OC(=O)CCCCCCCCC.CCN(CC)CC [RC-541]
- protection against L. monocytogenes challenge (reduction of log 10 bacteria per spleen vs vehicle) [3]: protection that was equal to or greater than that provided by MPL

Compound: CCCCCCCCCCCCCC(=O)O[C@H](CCCCCCCCCCC)CC(=O)N[C@H]1[C@H](OC[C@H](NC(=O)C[C@@H](CCCCCCCCCCC)OC(=O)CCCCCCCCCCCCC)C(=O)O)O[C@H](CO)[C@@H](OP(=O)(O)O)[C@@H]1OC(=O)C[C@@H](CCCCCCCCCCC)OC(=O)CCCCCCCCCCCCC.CCN(CC)CC [RC-512]
- % inhib. LPS IL-8 [1]: −1%
- IL-1β cba2 ([2]; donor 1): 3230
- IL10/TNFα cba ([2]; donor 2, ratio of IL-10 to TNF): 0.4
- TNFα/IL10 cba ([2]; donor 2, ratio of TNF to IL-10): 3.9

Compound: CCCCCCCCCCC[C@H](CC(=O)N[C@H]1[C@H](OC[C@H](NC(=O)C[C@@H](CCCCCCCCCCC)OC(=O)CCCCCCC)C(=O)O)O[C@H](CO)[C@@H](OP(=O)(O)O)[C@@H]1OC(=O)C[C@@H](CCCCCCCCCCC)OC(=O)CCCCCCC)OC(=O)CCCCCCC.CCN(CC)CC [RC-555]
- % inhib. LPS IL-8 [1]: 99%
- IL-1β cba2 ([2]; donor 1): 519
- IL10/TNFα cba ([2]; donor 2, ratio of IL-10 to TNF): 1.2
- TNFα/IL10 cba ([2]; donor 2, ratio of TNF to IL-10): 0.8
- cytokine stimulation in human whole blood cultures [2]: little if any cytokine stimulation

Compound: CCCCCCCCCCCC(=O)O[C@H](CCCCCCCCCCC)CC(=O)N[C@H]1[C@H](OC[C@H](NC(=O)C[C@@H](CCCCCCCCCCC)OC(=O)CCCCCCCCCCC)C(=O)O)O[C@H](CO)[C@@H](OP(=O)(O)O)[C@@H]1OC(=O)C[C@@H](CCCCCCCCCCC)OC(=O)CCCCCCCCCCC.CCN(CC)CC [RC-560]
- % inhib. LPS IL-8 [1]: −1%
- IL-1β cba2 [2]: 5833

Compound: CCCCCCCCCCCCCC(=O)O[C@H](CCCCCCCCCCC)CC(=O)NCCCCCCO[C@@H]1O[C@H](CO)[C@@H](OP(=O)(O)O)[C@H](OC(=O)C[C@@H](CCCCCCCCCCC)OC(=O)CCCCCCCCCCCCC)[C@H]1NC(=O)C[C@@H](CCCCCCCCCCC)OC(=O)CCCCCCCCCCCCC.CCN(CC)CC [RC-571]
- IL10/TNFα cba ([2]; donor 1, ratio of IL-10 to TNF): 8.6
- TNFα/IL10 cba ([2]; donor 1, ratio of TNF to IL-10): 0.5

Compound: CCCCCCCCCCC[C@H](CC(=O)N[C@H]1[C@H](OCCCN(CC(=O)O)C(=O)C[C@@H](CCCCCCCCCCC)OC(=O)CCCCCCCCC)O[C@H](CO)[C@@H](OP(=O)(O)O)[C@@H]1OC(=O)C[C@@H](CCCCCCCCCCC)OC(=O)CCCCCCCCC)OC(=O)CCCCCCCCC.CCN(CC)CC [RC-558]
- protection against L. monocytogenes challenge (reduction of log 10 bacteria per spleen vs vehicle) [3]: protection that was equal to or greater than that provided by MPL

Compound: CCCCCCCCCCC[C@H](CC(=O)N[C@H]1[C@H](OC[C@H](NC(=O)C[C@@H](CCCCCCCCCCC)OC(=O)CCCCC)C(=O)O)O[C@H](CO)[C@@H](OP(=O)(O)O)[C@@H]1OC(=O)C[C@@H](CCCCCCCCCCC)OC(=O)CCCCC)OC(=O)CCCCCCCCC.CCN(CC)CC [RC-568]
- % inhib. LPS IL-8 [1]: 96%
- cytokine stimulation in human whole blood cultures [2]: little if any cytokine stimulation

Compound: CCCCCCCCCCCCCC(=O)O[C@H](CCCCCCCCCCC)CC(=O)NCCCO[C@@H]1O[C@H](CO)[C@@H](OP(=O)(O)O)[C@H](OC(=O)C[C@@H](CCCCCCCCCCC)OC(=O)CCCCCCCCCCCCC)[C@H]1NC(=O)C[C@@H](CCCCCCCCCCC)OC(=O)CCCCCCCCCCCCC.CCN(CC)CC [RC-525]
- IL10/TNFα cba ([2]; donor 1, ratio of IL-10 to TNF): 3.7
- TNFα/IL10 cba ([2]; donor 1, ratio of TNF to IL-10): 1.8
- IL10/TNFα cba ([2]; donor 2, ratio of IL-10 to TNF): 0.7
- TNFα/IL10 cba ([2]; donor 2, ratio of TNF to IL-10): 1.2

Compound: CCCCCCCCCCC[C@H](CC(=O)N[C@H]1[C@H](OC[C@H](NC(=O)C[C@@H](CCCCCCCCCCC)OC(=O)CCCCCC)C(=O)O)O[C@H](CO)[C@@H](OP(=O)(O)O)[C@@H]1OC(=O)C[C@@H](CCCCCCCCCCC)OC(=O)CCCCCC)OC(=O)CCCCCC.CCN(CC)CC [RC-554]
- % inhib. LPS IL-8 [1]: 100%
- IL-1β cba2 ([2]; donor 1): 545
- IL10/TNFα cba ([2]; donor 2, ratio of IL-10 to TNF): 1.1
- TNFα/IL10 cba ([2]; donor 2, ratio of TNF to IL-10): 0.9
- cytokine stimulation in human whole blood cultures [2]: little if any cytokine stimulation

Compound: CCCCCCCCCCC[C@H](CC(=O)N[C@H]1[C@H](OC[C@H](NC(=O)C[C@@H](CCCCCCCCCCC)OC(=O)CCCCCCCCC)C(=O)O)O[C@H](CO)[C@@H](OP(=O)(O)O)[C@@H]1OC(=O)C[C@@H](CCCCCCCCCCC)OC(=O)CCCCC)OC(=O)CCCCCCCCC.CCN(CC)CC [RC-566]
- % inhib. LPS IL-8 [1]: 93%
- cytokine stimulation in human whole blood cultures [2]: little if any cytokine stimulation
